In patent publication US6942870B2, “Compositions and methods using direct MMP inhibitors for inhibiting photoaging of skin” (The Regents of the University of Michigan, priority 1997, dated 2005):
“Also recorded” adds a separate entry of the source.

What was measured:
human skin = experiment: UV-induced erythema (skin reddening) of human skin after topical pretreatment, chromameter; assay type: in vivo; conditions: for protection against UV-induced erythema / reduction in erythema: 5% ASA or 3.5% vit. C applied 16 hours prior to exposure; for reduction in erythema: vs untreated (vehicle-only) skin; for inhibition of UV-induced erythema: 2 MED, 20% NAC or 5% FDO pretreatment; for prevention of UV-induced erythema: 5% topical, applied about seven hours prior to UV exposure, vs vehicle-treated skin
Description: (§1) In the following examples, four F36T12 ERE-VHO UV bulbs were used to irradiate human skin. At all times, a Kodocel TA401/407 filter was mounted 4 cm in front of the bulbs to remove UVC radiation (<290 nm). Radiation intensity was monitored using an IL443 phototherapy radiometer and an SED240/UVB/W photodetector (International Light, Newbury, Mass.). Spectroradiometry was performed using an Optronic Labroatories OL 754 system. Total irradiance (290-800 nm) at about 43 cm (17 in.) from the source of four bulbs was about 1.5 mJ/cm^2·s (1.49×10^−3 W/cm^2). The radiation output from this bulb was determined by spectroradiometry to provide about 47% UVB and about 27% UVA (composed of about 9% UVA1 (340-400 nm) and about 18% UVA2 (320-340 nm)), the remainder being visible and IR radiation. An exposure of about 160 seconds under this set of four bulbs is equivalent to an exposure of one MED. Accordingly, when compared with natural sunlight which has 0.5% UVB and 6.5% UVA, it can be seen that the set of four bulbs used in these experiments provides far less UVA radiation than would exposure to the sun of an equivalent amount of UVB.
(§2) In the following examples, a “standard vechicle” of 30% PEG (polyethylene glycol) in 70% ethanol (with 0.05% BHT as preservative) was used. […] MMP activities were measured by zymography.
Chromameter: erythema (skin reddening) was determined 24 h post-exposure using a commercially available Minolta chromameter (chromameter CR200, model 94401085).

type I collagenase = experiment: Type I collagenase activity/level in biopsies of UV-exposed human skin; assay type: in vivo; conditions: for collagenase activity after UV exposure: 5% ASA applied 16 hours prior to exposure; for protection against UV-induced type I collagenase activity: 2 MED, 20% NAC or 5% FDO pretreatment; for inhibition of UV-induced increase in collagenase activity: 20% NAC; for inhibition of UV-induced collagenase activity: about 2 MED, 5% topical, about seven hours prior to exposure
Description: as §1, §2
Matrix metalloproteinase assays. Tissue pieces were frozen in liquid nitrogen immediately after biopsy, homogenized in 20 mM Tris HCl (pH 7.6) plus 5 mM CaCl2, and centrifuged at 3000×g for 10 minutes to remove particulates. Ability to release soluble radioactive fragments from 3H-labeled fibrillar Type I collagen (described by Fisher, G. J., et al., Nature, 379, 335-339 (1996) and Hu, C-L, et al., Analytic. Biochem, 88, 638-643 (1978)) was used as a measure of collagenolytic activity. […] Subsequently, 0.2 μCi of collagen substrate (NEN-DuPont, Boston, Mass.) was incubated for 24 hours with 50 μl of tissue extract. At the end of the 24-hour incubation period, the samples were centrifuged at 12,000×g for 10 minutes to pellet the intact protein. Radioactivity remaining in the supernatant fluid was then measured and from this, the percentage of substrate hydrolzyed was determined.

92 KDa gelatinase = experiment: 92 kDa gelatinase activity/level in biopsies of UV-exposed human skin (gelatin zymography); assay type: in vivo; conditions: for inhibition of UV-induced increase in 92 KDa gelatinase activity: 1 MED, 20% NAC; for inhibition of UV-induced 92 KDa gelatinase activity: 5% topical, about seven hours prior to exposure
Description: as §1, §2
Gelatin zymography (Varani et al., op. cit.) was used to assess MMP-2 (72-kD gelatinase; gelatinase A) and MMP9 (92-kD gelatinase; gelatinase B) activity. Tissue extracts were electrophoresed in an 8.5% SDS-polyacrylamide gel containing 1 mg/ml of gelatin. After electrophoresis, the SDS was removed by three sequential washes in 1% Triton X-100. The first two washes were for 20 minutes each and the last was overnight. Quantitation of hydrolysis zone width was done by laser densitometry.

[1] = UV absorbance characteristics of UVA blocker over UVA1, UVA2 and UVB wavelengths; assay type: physicochemical
Excerpt: We investigated the effect of pretreatment of skin with a known UVA blocker on both erythema and MMP activity after exposure to 2 MEDs of UV radiation. In particular, we used PARSOL® 1789 (also known as PARSOL A) brand of 4-t-butyl-4′-methoxydibenzoylmethane, which is described in U.S. Pat. No. 4,387,089 (the disclosure of which is incorporated herein by reference). (PARSOL MCX and PARSOL MOX are trademarks for 2-ethylhexyl p-methoxycinnamate, a UVB blocker commonly used in commercial sunscreen, and disclosed in U.S. Pat. No. 4,713,473, the disclosure of which is incorporated herein by reference). The absorbance characteristics of PARSOL® 1789 over the UVA1, UVA2, and UVB wavelengths is shown as the dotted line in FIG. 8A.

[2] = about 2 MED, 5% PARSOL 1789 pretreatment

CC(=O)Oc1ccccc1C(=O)O [ASA, acetyl salicylic acid]
protection against UV-induced erythema (human skin; 1 MED): provided protection against erythema
protection against UV-induced erythema (human skin; 1 MED, listed as aspirin): reduced the UV-induced erythema
reduction in erythema (human skin; 1 MED): about 30%
collagenase activity after UV exposure (type I collagenase; 1 MED, vs untreated skin): not effective at preventing elevated collagenase activity
collagenase activity after UV exposure (type I collagenase; 1 MED, vs untreated skin, listed as aspirin): greater collagenase activity than untreated skin

O/N=C(/C(=N/O)c1ccco1)c1ccco1 [FDO, 2-furildioxime]
inhibition of UV-induced erythema (human skin): effective at preventing erythema; also recorded: completely inhibited erythema
protection against UV-induced type I collagenase activity (type I collagenase): some protection against MMP induction

CC(=O)N[C@@H](CS)C(=O)O [NAC, N-acetyl cysteine]
inhibition of UV-induced increase in 92 KDa gelatinase activity (92 KDa gelatinase; four hour pretreatment): ineffective
inhibition of UV-induced increase in 92 KDa gelatinase activity (92 KDa gelatinase; seven hour pretreatment): provided an inhibitory effect
anti-redness effect on UV-exposed skin (human skin; 1 MED, 20% NAC, four or seven hours prior to exposure): no anti-redness effect
inhibition of UV-induced erythema (human skin): no effect against erythema
inhibition of UV-induced increase in collagenase activity (type I collagenase; 1 MED, four hour pretreatment): ineffective
inhibition of UV-induced increase in collagenase activity (type I collagenase; 1 MED, seven hour pretreatment): provided an inhibitory effect
protection against UV-induced type I collagenase activity (type I collagenase): effective at preventing increased MMP activity; also recorded: significant protection against collagenase activity

COc1ccc(C(=O)CC(=O)c2ccc(C(C)(C)C)cc2)cc1 [PARSOL® 1789, 4-t-butyl-4′-methoxydibenzoylmethane]
gelatinase activity vs UV-exposed vehicle-treated skin (92 KDa gelatinase; [2]): significantly reduced
gelatinase activity vs vehicle-treated unexposed skin (92 KDa gelatinase; [2]): not significantly different from vehicle-treated unexposed skin
protection from UV-induced erythema (sunburn) (human skin; [2]): does provide some protection
blocking of UVA1 radiation (absorbance) ([1]; UVA1 wavelengths): somewhat effective at blocking UVA1 radiation
blocking of UVA2 radiation (absorbance) ([1]; UVA2 wavelengths): especially useful at blocking UVA2 radiation

COc1ccc2[nH]cc(CCNC(C)=O)c2c1 [melatonin]
inhibition of UV-induced 92 KDa gelatinase activity (92 KDa gelatinase; about 2 MED): neither melatonin nor vitamin E (both with pretreatment) prevented induction of MMPs; also recorded: did not function to inhibit the increased MMP activity
prevention of UV-induced erythema (human skin; about 2 MED): significantly reduced the erythema
prevention of UV-induced erythema (human skin; about 2 MED, listed as Melatonin): does appear to prevent erythema
inhibition of UV-induced collagenase activity (type I collagenase): neither melatonin nor vitamin E (both with pretreatment) prevented induction of MMPs; also recorded: did not function to inhibit the increased MMP activity

CC1=C(/C=C/C(C)=C/C=C/C(C)=C/CO)C(C)(C)CCC1 [retinol]
prevention of UV-induced elevation in type I collagenase activity (type I collagenase; suberythemal 0.5 MED, 0.1% retinoic acid or 1% retinol pretreatment): about as effective as retinoic acid

O=C1O[C@H]([C@@H](O)CO)C(O)=C1O [vitamin C, ascorbic acid]
protection against UV-induced erythema (human skin; 1 MED): provided protection against erythema; also recorded: reduced the UV-induced erythema
reduction in erythema (human skin; 1 MED): about 30%
reduction in collagenase activity (type I collagenase; 1 MED, 3.5% vit. C applied 16 hours prior to exposure, vs untreated skin): ~25%

vitamin E
inhibition of UV-induced 92 KDa gelatinase activity (92 KDa gelatinase; about 2 MED): neither melatonin nor vitamin E (both with pretreatment) prevented induction of MMPs; also recorded: did not function to inhibit the increased MMP activity
prevention of UV-induced erythema (human skin; about 2 MED): significantly reduced the erythema
prevention of UV-induced erythema (human skin; about 2 MED, listed as Vitamin E): slightly worse but still very effective at preventing erythema
inhibition of UV-induced collagenase activity (type I collagenase): neither melatonin nor vitamin E (both with pretreatment) prevented induction of MMPs; also recorded: did not function to inhibit the increased MMP activity
